In patent US20120270875A1, “PYRIMIDINE AMIDE COMPOUNDS” (priority 2011, published 2012):

What follows are compounds tested against sLFA-1/ICAM-1 (Homo sapiens, UniProt P05107+P20701, DEL701-769) (assay: sLFA-1/ICAM-1 ELISA). Conditions: sLFA-1 coated plates, 5dICAM-Fc binding, ELISA; read-out: LFA-1/ICAM (IC50).
Assay type: binding
Protocol: sLFA-1/ICAM-1 ELISA and Mac-1/ICAM-1 ELISA
Plates were coated with either 50 μl/well of 2.0 ug/ml solution of sLFA-1 or Mac-1 receptor in divalent cation buffer (1 mM MnCl2, 0.14M NaCl, 20 mM HEPES pH 7.2) at 4° C. overnight. Two hundred fifty μl of blocking buffer (1% BSA in divalent cation buffer) was added to each well 1 hour at 37° C. Plates were washed 3 times with wash buffer (TBS/0.05% Tween-20/1 mM MnCl2). The compound to be tested was solubilized in DMSO. A series of 1:3 dilutions were performed to achieve a concentration range of 0.45 nM-3 uM. Fifty μl of binding buffer (0.5% BSA in divalent cation buffer)/1% DMSO and 50 μl of the solutions to be tested were added to the appropriate wells and incubated for 1 hour. Fifty μl of 5dICAM-Fc (27 ng/ml) was added to the appropriate wells and 50 μl binding buffer was added to non-specific binding wells and incubated for 2 hours and washed. One hundred μl of 1:4000 HRP-goat anti-huIgG was added to each well and incubated for 1 hour and washed. One hundred μl of 1:1 TMB solution was added to each well and developed for 20 min at room temperature. Color development was stopped by adding 100 μl H3PO4 to each well. Absorbance was measured at 450 nm.

sLFA-1/ICAM-1, sequence (P20701 26-1090 limits assumed, stated change not applied): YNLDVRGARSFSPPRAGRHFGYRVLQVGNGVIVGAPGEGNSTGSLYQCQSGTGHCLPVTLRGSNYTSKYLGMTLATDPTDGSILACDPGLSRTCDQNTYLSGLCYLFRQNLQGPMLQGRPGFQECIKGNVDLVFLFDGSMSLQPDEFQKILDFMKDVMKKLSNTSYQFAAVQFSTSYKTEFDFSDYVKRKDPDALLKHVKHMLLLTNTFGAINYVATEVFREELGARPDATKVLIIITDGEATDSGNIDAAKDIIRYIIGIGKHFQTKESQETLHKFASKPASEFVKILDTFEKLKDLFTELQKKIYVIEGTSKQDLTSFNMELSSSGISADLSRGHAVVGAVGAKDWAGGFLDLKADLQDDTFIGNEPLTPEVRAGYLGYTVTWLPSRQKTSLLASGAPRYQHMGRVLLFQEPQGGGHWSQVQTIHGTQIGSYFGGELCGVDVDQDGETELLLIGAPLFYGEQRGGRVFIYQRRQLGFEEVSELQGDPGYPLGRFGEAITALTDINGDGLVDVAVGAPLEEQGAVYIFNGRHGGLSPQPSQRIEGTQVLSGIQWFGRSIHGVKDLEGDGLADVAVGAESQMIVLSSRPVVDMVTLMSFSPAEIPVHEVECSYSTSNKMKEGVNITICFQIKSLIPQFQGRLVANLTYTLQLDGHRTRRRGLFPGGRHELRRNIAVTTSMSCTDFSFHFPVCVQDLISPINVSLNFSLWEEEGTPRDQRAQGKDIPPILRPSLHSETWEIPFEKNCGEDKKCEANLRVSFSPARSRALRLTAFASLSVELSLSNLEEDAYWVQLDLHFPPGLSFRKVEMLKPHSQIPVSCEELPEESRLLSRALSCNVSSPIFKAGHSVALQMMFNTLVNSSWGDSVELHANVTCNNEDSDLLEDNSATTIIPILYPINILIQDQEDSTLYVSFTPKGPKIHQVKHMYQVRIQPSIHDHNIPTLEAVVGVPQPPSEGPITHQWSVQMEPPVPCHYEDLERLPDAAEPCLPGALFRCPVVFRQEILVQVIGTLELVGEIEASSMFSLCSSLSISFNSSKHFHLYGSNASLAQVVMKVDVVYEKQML
sLFA-1/ICAM-1, sequence (P05107 23-700 limits assumed, stated change not applied): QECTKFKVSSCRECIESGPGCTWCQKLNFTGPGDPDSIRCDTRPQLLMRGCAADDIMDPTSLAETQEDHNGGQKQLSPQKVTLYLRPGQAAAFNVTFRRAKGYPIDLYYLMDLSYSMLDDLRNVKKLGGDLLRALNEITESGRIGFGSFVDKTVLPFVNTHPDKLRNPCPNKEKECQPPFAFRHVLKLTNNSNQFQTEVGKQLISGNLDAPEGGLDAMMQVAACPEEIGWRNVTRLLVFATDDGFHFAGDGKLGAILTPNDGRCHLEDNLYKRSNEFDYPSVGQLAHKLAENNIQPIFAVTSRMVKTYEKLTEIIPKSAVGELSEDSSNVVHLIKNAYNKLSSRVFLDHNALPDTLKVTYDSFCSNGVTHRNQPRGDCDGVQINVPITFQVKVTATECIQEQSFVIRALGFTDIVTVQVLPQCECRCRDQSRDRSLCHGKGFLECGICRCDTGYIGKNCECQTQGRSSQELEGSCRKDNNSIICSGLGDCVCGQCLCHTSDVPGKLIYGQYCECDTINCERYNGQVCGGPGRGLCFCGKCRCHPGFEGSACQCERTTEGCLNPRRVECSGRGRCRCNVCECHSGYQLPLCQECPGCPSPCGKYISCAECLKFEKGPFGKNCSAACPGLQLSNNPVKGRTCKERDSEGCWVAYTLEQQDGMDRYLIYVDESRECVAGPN

IC50 [nM] | Structure (SMILES)
500 | Cc1nc(NCc2ccccc2-c2ccccc2O)nc(C)c1C(=O)N[C@@H](CNC(=O)c1cccs1)C(=O)O [Example 14, (S)-2-({2-[(2′-hydroxy-biphenyl-2-ylmethyl)-amino]-4,6-dimethyl-pyrimidine-5-carbonyl}-amino)-3-[(thiophene-2-carbonyl)-amino]-propionic acid]
42 | Cc1ccsc1C(=O)NC[C@H](NC(=O)c1c(C)nc(NCCCc2cccc(O)c2)nc1C)C(=O)O [Example 91, (S)-2-({2-[3-(3-hydroxy-phenyl)-propylamino]-4,6-dimethyl-pyrimidine-5-carbonyl}-amino)-3-[(3-methyl-thiophene-2-carbonyl)-amino]-propionic acid]
103 | CCc1ccc(C(=O)NC[C@H](NC(=O)c2c(C)nc(NCCCc3cccc(O)c3)nc2C)C(=O)O)s1 [Example 105, (S)-[(5-Ethyl-thiophene-2-carbonyl)-amino]-2-({2-[3-(3-hydroxy-phenyl)-propylamino]-4,6-dimethyl-pyrimidine-5-carbonyl}-amino)-3-propionic acid]
378 | O=C(NC[C@H](NC(=O)c1cnc(NCCCc2cccc(O)c2)nc1C(F)(F)F)C(=O)O)c1cccs1 [Example 77, (S)-2-({2-[3-(3-Hydroxy-phenyl)-propylamino]-4-trifluoromethyl-pyrimidine-5-carbonyl}-amino)-3-[(thiophene-2-carbonyl)-amino]-propionic acid]
64 | O=C(N[C@@H](CNC(=O)c1cccs1)C(=O)O)c1cnc(NCCCc2cccc(O)c2)nc1 [Example 75, (S)-2-({2-[3-(3-Hydroxy-phenyl)-propylamino]-pyrimidine-5-carbonyl}-amino)-3-[(thiophene-2-carbonyl)-amino]-propionic acid]
265 | Cc1nc(NCCCc2cccc(O)c2)nc(C)c1C(=O)N[C@@H](CNC(=O)c1ccc(Cl)s1)C(=O)O [Example 95, (S)-3-[(5-Chloro-thiophene-2-carbonyl)-amino]-2-({2-[3-(3-hydroxy-phenyl)-propylamino]-4,6-dimethyl-pyrimidine-5-carbonyl}-amino)-propionic acid]
85 | Cc1nc(NCCCc2cccc(O)c2)nc(C)c1C(=O)N[C@@H](CNC(=O)c1ccccn1)C(=O)O [Example 42, (S)-2-({2-[3-(3-hydroxy-phenyl)-propylamino]-4,6-dimethyl-pyrimidine-5-carbonyl}-amino)-3-[(pyridine-2-carbonyl)-amino]-propionic acid]
28 | Cc1nc(NCCCc2ccc(O)cc2)nc(C)c1C(=O)N[C@@H](CNC(=O)c1cccs1)C(=O)O [Example 69, (S)-2-({2-[3-(4-Hydroxy-phenyl)-propylamino]-4,6-dimethyl-pyrimidine-5-carbonyl}-amino)-3-[(thiophene-2-carbonyl)-amino]-propionic acid]
309 | Cc1nc(NC2CCc3cc(O)ccc3C2)nc(C)c1C(=O)N[C@@H](CNC(=O)c1cccs1)C(=O)O (stereo partly drawn) [Example 17, (S) 2-(2-[6-hydroxy-1,2,3,4-tetrahydro-naphthalen-2-ylamino]-4,6-dimethyl-pyrimidine-5-carbonyl-amino)-3-[(thiophene-2-carbonyl)-amino]-propionic acid]
1980 | Cc1nc(NCCCc2cccc(O)n2)nc(C)c1C(=O)N[C@@H](CNC(=O)c1cccs1)C(=O)O [Example 52, (S)-2-({2-[3-(6-Hydroxy-pyridin-2-yl)-propylamino]-4,6-dimethyl-pyrimidine-5-carbonyl}-amino)-3-[(thiophene-2-carbonyl)-amino]-propionic acid]
353 | Cc1nc(NCCCc2cccc(O)c2)nc(C)c1C(=O)N[C@@H](CNC(=O)c1csc(-c2ccncc2)n1)C(=O)O (single isomer, unassigned) [Example 41]
78 | Cc1csc(C(=O)NC[C@H](NC(=O)c2c(C)nc(NCCCc3cccc(O)c3)nc2C)C(=O)O)c1 [Example 89, (S)-2-({2-[3-(3-hydroxy-phenyl)-propylamino]-4,6-dimethyl-pyrimidine-5-carbonyl}-amino)-3-[(4-methyl-thiophene-2-carbonyl)-amino]-propionic acid]
287 | Cc1nc(NCCCc2cccc(O)c2)nc(C)c1C(=O)N[C@@H](CNC(=O)C12CC3CC(CC(C3)C1)C2)C(=O)O [Example 99, (S)-3-[(Adamantane-1-carbonyl)-amino]-2-({2-[3-(3-hydroxy-phenyl)-propylamino]-4,6-dimethyl-pyrimidine-5-carbonyl}-amino)-propionic acid]

Further lines, the compound ahead of its results:

Structure (SMILES) | IC50 [nM]
COC(=O)NC[C@H](NC(=O)c1c(C)nc(NCCCc2cccc(O)c2)nc1C)C(=O)O [Example 109, (S)-2-({2-[3-(3-Hydroxy-phenyl)-propylamino]-4,6-dimethyl-pyrimidine-5-carbonyl}-amino)-3-methoxycarbonylamino-propionic acid] | 198
Cc1nc(NCCCc2cccc(O)c2)nc(C)c1C(=O)N[C@@H](CNC(=O)c1ccsc1)C(=O)O [Example 85, (S)-2-({2-[3-(3-hydroxy-phenyl)-propylamino]-4,6-dimethyl-pyrimidine-5-carbonyl}-amino)-3-[(thiophene-3-carbonyl)-amino]-propionic acid] | 12
Cc1nc(NCCCc2cccc(O)c2F)nc(C)c1C(=O)N[C@@H](CNC(=O)c1cccs1)C(=O)O [Example 70, (S)-2-({2-[3-(2-Fluoro-3-hydroxy-phenyl)-propylamino]-4,6-dimethyl-pyrimidine-5-carbonyl}-amino)-3-[(thiophene-2-carbonyl)-amino]-propionic acid] | ≥ 3000
Cc1nc(NCCCc2cccc(O)c2C)nc(C)c1C(=O)N[C@@H](CNC(=O)c1cccs1)C(=O)O [Example 66, (S)-2-({2-[3-(3-Hydroxy-2-methyl-phenyl)-propylamino]-4,6-dimethyl-pyrimidine-5-carbonyl}-amino)-3-[(thiophene-2-carbonyl)-amino]-propionic acid] | 111
Cc1nc(NCCCc2cc(O)ccc2F)nc(C)c1C(=O)N[C@@H](CNC(=O)c1cccs1)C(=O)O [Example 71, (S)-2-({2-[3-(2-Fluoro-5-hydroxy-phenyl)-propylamino]-4,6-dimethyl-pyrimidine-5-carbonyl}-amino)-3-[(thiophene-2-carbonyl)-amino]-propionic acid] | 224
Cc1nc(NCCCc2cccc(O)c2)nc(C)c1C(=O)N[C@@H](CNC(=O)N1CCCc2ccccc21)C(=O)O [Example 115, (S)-3-[(3,4-Dihydro-2H-quinoline-1-carbonyl)-amino]-2-({2-[3-(3-hydroxy-phenyl)-propylamino]-4,6-dimethyl-pyrimidine-5-carbonyl}-amino)-propionic acid] | 456
CCc1nc(NCCCc2cccc(O)c2)nc(CC)c1C(=O)N[C@@H](CNC(=O)c1cccs1)C(=O)O [Example 79, (S)-2-({4,6-Diethyl-2-[3-(3-hydroxy-phenyl)-propylamino]-pyrimidine-5-carbonyl}-amino)-3-[(thiophene-2-carbonyl)-amino]-propionic acid] | 90
Cc1nc(NC2CCc3cccc(O)c3C2)nc(C)c1C(=O)N[C@@H](CNC(=O)c1cccs1)C(=O)O (stereo partly drawn) [Example 18, (S) 2-(2-[8-hydroxy-1,2,3,4-tetrahydro-naphthalen-2-ylamino]-4,6-dimethyl-pyrimidine-5-carbonyl-amino)-3-[(thiophene-2-carbonyl)-amino]-propionic acid] | 48
Cc1nc(NCc2ccccc2-c2cccc(O)c2)nc(C)c1C(=O)N[C@@H](CNC(=O)c1cccs1)C(=O)O [Example 12, (S)-2-({2-[(3′-hydroxy-biphenyl-2-ylmethyl)-amino]-4,6-dimethyl-pyrimidine-5-carbonyl}-amino)-3-[(thiophene-2-carbonyl)-amino]-propionic acid] | 191
Cc1nc(NCCCc2cccc(O)c2)nc(C)c1C(=O)N[C@@H](CNC(=O)c1nccc2ccccc12)C(=O)O [Example 45, (S)-2-({2-[3-(3-hydroxy-phenyl)-propylamino]-4,6-dimethyl-pyrimidine-5-carbonyl}-amino)-3-[(isoquinoline-1-carbonyl)-amino]-propionic acid] | 87
Cc1cccc(C(=O)NC[C@H](NC(=O)c2c(C)nc(NCCCc3cccc(O)c3)nc2C)C(=O)O)c1 [Example 97, (S)-2-({2-[3-(3-hydroxy-phenyl)-propylamino]-4,6-dimethyl-pyrimidine-5-carbonyl}-amino)-3-(3-methyl-benzoylamino)-propionic acid] | 177
Cc1nc(C)c(C(=O)NC[C@H](NC(=O)c2c(C)nc(NCCCc3cccc(O)c3)nc2C)C(=O)O)s1 [Example 43, (S)-2-({2-[3-(3-hydroxy-phenyl)-propylamino]-4,6-dimethyl-pyrimidine-5-carbonyl}-amino)-3-[(2,4-dimethyl-thiazole-5-carbonyl)-amino]-propionic acid] | 128
Cc1nc(NCCCc2ccc(F)c(O)c2)nc(C)c1C(=O)N[C@@H](CNC(=O)c1cccs1)C(=O)O [Example 65, (S)-2-({2-[3-(4-Fluoro-3-hydroxy-phenyl)-propylamino]-4,6-dimethyl-pyrimidine-5-carbonyl}-amino)-3-[(thiophene-2-carbonyl)-amino]-propionic acid] | 1300
